US20060069151A1, “Novel use of lycopene” (priority 2002, published 2006)

Tested on: androgen signalling
Assay: androgen target gene expression in androgen sensitive target organ tissue
Type: in vivo
Conditions: after administration; no method, species or dose described

With `CC(C)=CCC/C(C)=C/C=C/C(C)=C/C=C/C(C)=C/C=C/C=C(C)/C=C/C=C(C)/C=C/C=C(\C)CCC=C(C)C` [lycopene] the “androgen target gene expression in androgen sensitive target organ tissue, as the endpoint and result of androgen signalling” value was “significantly reduced”.
